PubChem BioAssay AID1996
Converted amounts (≈) assume the structure as drawn.

conditions: buffer; pH 7.4; 200.0 µM

| SMILES | solubility kinetic [µg/mL] |
| --- | --- |
| O=C(Oc1ccc2ccc(=O)oc2c1)c1ccc([N+](=O)[O-])cc1 | 0.9 (≈ 2.89 µM) |
| CC(=O)c1ccc(NC(=O)c2cccc(NC(=O)c3ccccc3)c2)cc1 | 0.7 (≈ 1.95 µM) |
| COc1ccccc1-c1cc(C(=O)N2CCCC2)no1 | > 40.8 |
| CCOc1ccccc1NC(=S)NC(=O)C1CC1 | 2.6 (≈ 9.84 µM) |
| Cc1cccc(CC(C)NC(=O)CCc2nnc(-c3ccccc3)o2)n1 (stereo not given) | > 52.6 |
| Cn1ncc([N+](=O)[O-])c1C(=O)Nc1ccccc1Cl | > 42.1 |
| CCC(CC)NC(=O)Cc1ccc(F)cc1 | > 33.5 |
| CC(C)(C)n1cnc2cc(NC(=O)c3ccc(Cl)cc3)ccc21 | 33.4 (≈ 102 µM) |
| C=CCc1cccc2cc(C(=O)NCCOC)c(=O)oc12 | 41.5 (≈ 144 µM) |
| Nc1ccc2nc(SCC(=O)N3CCOCC3)sc2c1 | > 46.4 |
| N#Cc1cc([N+](=O)[O-])ccc1NC(=O)COC(=O)CN1C(=O)C2CCCCC2C1=O (stereo not given) | > 62.2 |
| CC(=O)Nc1ccc(NC(=O)c2c([N+](=O)[O-])cnn2C)cc1 | > 45.5 |
| COc1cc(CCC(=O)Nc2ncc(C)s2)cc(OC)c1OC | 18.8 (≈ 55.9 µM) |
| COc1ccc(OC)c(NC(=O)CCC(=O)Oc2ccc(C)cc2)c1 | 49.1 (≈ 143 µM) |
| CCOC(=O)C1=C(N)Oc2cc(O)ccc2C1c1ccc(F)cc1F (stereo not given) | < 0.7 |
| COc1ccccc1C(=O)Nc1ccc(NC(=O)C2CCCCC2)nc1 | 0.9 (≈ 2.55 µM) |
| N#Cc1c(C(F)(F)F)cc(-c2cccs2)nc1N1CCCCC1 | < 0.2 |
| O=C(O)C1CC=CCC1C(=O)Nc1ccc2c(c1)CCC2 (stereo not given) | > 42.8 |
| CC1(c2ccccc2)CC(C)(C)N2C(=O)Cc3cccc1c32 (stereo not given) | 6 (≈ 20.6 µM) |
| COC(=O)c1ccc(CN2C(=O)NC3(CCC(C)CC3)C2=O)cc1 (stereo not given) | 7.5 (≈ 22.7 µM) |
| CCOc1nc(Nc2ccccc2)nc(OCC)n1 | 38 (≈ 146 µM) |
| CSc1ncccc1C(=O)OCc1ccccc1Cl | < 0.6 |
| O=C(Nc1ccccc1)C1CC2CCC1C2 (stereo not given) | 31.8 (≈ 148 µM) |
| CC(NC(=O)c1ccccc1Cl)c1ccc(-n2ccnc2)cc1 (stereo not given) | > 48.9 |

| SMILES | solubility kinetic [µg/mL] |
| --- | --- |
| CC1(C)c2ccccc2N(CC(N)=O)C12C=Cc1ccccc1O2 (stereo not given) | 12.6 (≈ 39.3 µM) |
| COc1ccc(NS(=O)(=O)c2c(C)cc(C)cc2C)cn1 | 5.3 (≈ 17.3 µM) |
| CN1CCN(C(=S)NC(=O)c2cccc([N+](=O)[O-])c2)CC1 | > 46.3 |
| Cc1nc2ccccc2c(=O)n1-c1cccc([N+](=O)[O-])c1 | 36.4 (≈ 129 µM) |
| CC(C)(C)C(=O)CN1C(=O)NC2(CCc3ccccc32)C1=O (stereo not given) | > 45.1 |
| O=C(NCCCN1CCCC1=O)Nc1ccccc1F | > 41.9 |
| COc1ccccc1CCC(=O)NCCCn1ccc2ccccc21 | 27.2 (≈ 80.8 µM) |
| N#Cc1cccc(C(=O)OCC(=O)NCc2ccco2)c1 | 31.2 (≈ 110 µM) |
| Cc1ccc(C)c(NC(=O)COC(=O)Cc2ccsc2)c1 | 42.5 (≈ 140 µM) |
| O=C(NCCCn1ccnc1)c1ccc2nccnc2c1 | > 42.2 |
| COc1ccccc1-c1nc2ccc(Cl)cc2c(=O)n1O | > 45.4 |
| CCC(=O)c1ccc(SC(=O)N(C)C)cc1O | 33.7 (≈ 133 µM) |
| O=C(CS(=O)c1ccc(F)cc1)N1CCOCC1 (stereo not given) | > 40.7 |
| Cc1cc(O)c(C(=O)/C=C/c2cccc([N+](=O)[O-])c2)c(=O)o1 | > 45.2 |
| Nc1ccc(CCc2ccc(N)cc2)cc1 | 22 (≈ 104 µM) |
| COc1cc(S(=O)(=O)n2cnc3ccccc32)ccc1Br | > 55.1 |
| O=C(Nc1ccccc1C(F)(F)F)c1cc2ccccc2o1 | < 0.7 |
| O=S(=O)(NCc1csc(-c2cccs2)n1)c1ccccc1 | 40.6 (≈ 121 µM) |
| CC1CCCC(C)N1CC(O)COCc1ccccc1.Cl (stereo not given) | > 47.1 |
| Cn1c(N)c(C(=O)COC(=O)Cc2ccccc2)c(=O)n(C)c1=O | > 49.7 |
| Nc1nc2cc(S(=O)(=O)N3CCOCC3)ccc2o1 | > 42.5 |
| Cc1nc(Nc2cccc(F)c2)c2oc3ccccc3c2n1 | < 0.2 |
| CC(C)c1ccc(C(O)P(=O)(OCc2ccccc2)c2ccc(N(C)C)cc2)cc1 (stereo not given) | 6.2 (≈ 14.6 µM) |
| O=[N+]([O-])c1ccc(C(O)CN2CCOCC2)cc1 (stereo not given) | > 37.8 |

| SMILES | solubility kinetic [µg/mL] |
| --- | --- |
| O=C(NC1CC1)c1c(O)c2ccccc2[nH]c1=O | 2.8 (≈ 11.5 µM) |
| Cc1ccc(NC(=O)C2CC(O)CN2C(=O)OCc2ccccc2)c(C)c1 (stereo not given) | 37.2 (≈ 101 µM) |
| C=CCC1(Cl)C(=O)C(Cl)=C(N2CCN(C)CC2)C1(OC)OC (stereo not given) | > 52.4 |
| O=C(/C=C/Nc1nccs1)C(F)(F)Cl | 33.6 (≈ 141 µM) |
| Cc1ccc(OCC(=O)Nc2cc(C(C)(C)C)on2)cc1C | 3.9 (≈ 12.9 µM) |
| CCC(=O)Nc1nc2ccccc2n1Cc1ccccc1Cl | 1.7 (≈ 5.42 µM) |
| CC(=O)Nc1ccc(NC(=O)COC(=O)COc2ccc3ccccc3c2)cc1 | 9.7 (≈ 24.7 µM) |
| CCOc1ccc(CCNC(=O)/C=C/c2ccco2)cc1OCC | > 49.4 |
| Cc1c(C(=O)OCC(=O)NC(=O)NC2CCCCC2)cccc1[N+](=O)[O-] | 2.3 (≈ 6.33 µM) |
| O=C(O)CCSC(=S)N1CCOCC1 | 29.3 (≈ 125 µM) |
| CCCCCCC1CCC(C(=O)N2CCOCC2)CC1 (stereo not given) | 10 (≈ 35.5 µM) |
| Cc1ccc(C)c(NC(=O)NCc2ccccn2)c1 | 35.4 (≈ 139 µM) |
| CC(C)CN1CCN(Cc2ccccc2C(F)(F)F)CC1CCO (stereo not given) | 48.7 (≈ 141 µM) |
| O=C(COC(=O)c1cccc(Cl)c1)NC(=O)NCc1ccccc1 | 3.6 (≈ 10.4 µM) |
| COc1cccc(N2C(=O)CN(Cc3ccccc3)C2=S)c1 | 24.9 (≈ 79.7 µM) |
| O=C(NC1CC2CCCC(C1)N2C(=O)Nc1cccc(F)c1)C1CC1 (stereo not given) | 16.3 (≈ 47.2 µM) |
| O=C(NCc1cccnc1)Nc1ccccc1Cl | > 39.3 |
| CC(C)CN1CCNC(=O)C1CC(=O)N(C)CC1CCOCC1 (stereo not given) | 45.7 (≈ 140 µM) |
| COc1cccc2cc(C(=O)NCCc3ccccc3)oc12 | 26.9 (≈ 91.1 µM) |
| O=C(Nc1nonc1-c1ccc(F)cc1)c1ccco1 | > 41 |
| Oc1ccc(NC(=S)Nc2ccc(F)cc2)cc1 | 33.2 (≈ 127 µM) |
| Cn1c(CNc2ccc(F)cc2)nc2ccccc21 | > 38.3 |
| O=C(/C=C/c1ccco1)OCC(=O)N1CCCCC1 | > 39.5 |
| CCOC(=O)c1cc(C#N)c(N2CCNCC2)nc1C(F)(F)F | > 49.2 |

| SMILES | solubility kinetic [µg/mL] |
| --- | --- |
| O=C(COC(=O)c1ccccc1O)NCc1ccccc1Cl | 5 (≈ 15.6 µM) |
| COc1cccc(CNC(=O)c2cc(C)nc3ccccc23)c1 | 41.1 (≈ 134 µM) |
| CCc1sc(C(=O)Nc2cccnc2)cc1Br | 3.9 (≈ 12.5 µM) |
| O=C(NC(=S)NCc1ccccc1)c1ccccc1Br | < 0.4 |
| CC(C)Oc1ccc(C(=O)Nc2cccc3cccnc23)cc1 | 1.1 (≈ 3.59 µM) |
| CC(C)Cc1ccc(S(=O)(=O)Nc2ccc3[nH]c(=O)[nH]c3c2)cc1 | 1.1 (≈ 3.18 µM) |
| O=C(c1cc2cc(F)ccc2[nH]1)N1CCc2ccccc21 | 1.4 (≈ 4.99 µM) |
| Cc1ccc(N(CC(=O)Nc2c(C)cccc2C)S(C)(=O)=O)cc1 | 35.1 (≈ 101 µM) |
| Cc1c(C(=O)O)cc(-c2ccccc2)n1Cc1ccccc1 | > 43.7 |
| O=C(Nc1cccc(C(=O)O)c1)Nc1ccc2c(c1)OCO2 | > 45 |
| CCOC(=O)C1CCCN(Cc2ccc(-c3ccccc3)cc2)C1 (stereo not given) | 11.9 (≈ 36.8 µM) |
| CCCOc1nc2ccccc2cc1/C=C/C(=O)O | 8.3 (≈ 32.3 µM) |
| Cc1ccc(C(=O)O)cc1NC(=O)CSc1nnc(-c2ccccc2F)n1C1CCCCC1 | > 70.3 |
| CCCn1c(N)c(N2CCCCC2)c(=O)n(CC(=O)Nc2cccc(S(=O)(=O)N(C)C)c2)c1=O | 68.3 (≈ 139 µM) |
| CCOc1ccccc1NC(=O)c1ccc2c(c1)C(=O)N(CC)C2=O | < 0.4 |
| CN(C)c1ccc(C(=O)OCc2cc(=O)n3ccsc3n2)cc1 | 3.8 (≈ 11.5 µM) |
| CC(C)N1C(=O)C(=O)N(CC(=O)N2CCc3ccccc32)C1=O | > 47.3 |
| Cc1ccc(NC(=S)N(Cc2ccccc2)Cc2cccs2)c(C)c1 | 0.8 (≈ 2.18 µM) |
| CN(Cc1ccccc1)S(=O)(=O)c1cn(C)cn1 | > 39.8 |
| COc1ccc(CCNC(=O)C(C)SCC(=O)Nc2ccc(F)cc2)cc1 (stereo not given) | > 58.6 |
| Cc1ccc(SCCC(=O)OC(C(=O)NC(N)=O)C(C)C)cc1 (stereo not given) | 7 (≈ 20.7 µM) |
| CCOC(=O)/C(C#N)=C/Nc1cc(F)ccc1C | 3.2 (≈ 12.9 µM) |
| CSc1ncc(CN2CCCC(C(=O)c3cccc(Cl)c3)C2)cn1 (stereo not given) | 29 (≈ 80.1 µM) |
| CCOC(=O)c1cc(NC(=O)Nc2cc(C)ccn2)c(C)nc1C | 0.3 (≈ 0.914 µM) |

| SMILES | solubility kinetic [µg/mL] |
| --- | --- |
| COc1ccc(C(=O)CNC2=NCCC2)cc1.Cl | > 40.3 |
| COc1ccc(S(=O)(=O)NCc2ccccn2)c(C)c1C | 32.8 (≈ 107 µM) |
| CCc1ccc(C(=O)COC(=O)C2=NN(c3ccccc3)C(=O)CC2)cc1 | > 54.7 |
| O=C(NC(=S)N1CCN(C/C=C/c2ccccc2)CC1)c1ccco1 | > 53.3 |
| COc1ccccc1/C=C/C(=O)NC(=S)N1CCN(C)CC1 | > 47.9 |
| CCCCn1c(=S)[nH]c2cc(S(=O)(=O)N3CCOCC3)ccc21 | > 53.3 |
| CCn1c(SCC#N)nc2ccccc2c1=O | > 36.8 |
| Cc1cc(/C(N)=N/OC(=O)c2cccc(Cl)c2)no1 | 2.2 (≈ 7.87 µM) |
| Cc1ccc(NC(=O)CN(C)C(=O)COc2ccccc2-c2ccccc2)cc1 | 11.1 (≈ 28.6 µM) |
| CC(=O)N1CCN(C(=O)CSc2ncnc3sc(C)c(C)c23)CC1 | > 54.7 |
| Cc1ccc2cccc(OCc3cccc([N+](=O)[O-])c3)c2n1 | 23.6 (≈ 80.2 µM) |
| O=C(NC1CCN(C(=O)Nc2ccc(F)cc2)CC1)c1cccc(F)c1 | 6 (≈ 16.7 µM) |
| Cc1c(C(=O)OCC(=O)N(C)c2ccccc2)cccc1[N+](=O)[O-] | 38.1 (≈ 116 µM) |
| Cc1c(Cl)cccc1NC(=S)Nc1ccccn1 | 1 (≈ 3.6 µM) |
| Cc1cc(C)c(NC(=S)NCCCSC2CCCCC2)c(C)c1 | 6.1 (≈ 17.4 µM) |
| CC(NC(=O)CCCc1c[nH]c2ccccc12)c1ccc(F)cc1 (stereo not given) | 41.5 (≈ 128 µM) |
| O=c1[nH]cnc2ncc(-c3ccc(O)cc3)nc12 | > 36 |
| Cc1cccc(NC(=O)c2ccc3nccnc3c2)c1C | 37.1 (≈ 134 µM) |
| Cc1cccc(C(=O)Nc2cccnc2Cl)c1 | > 37 |
| N#Cc1ccccc1NC(=O)c1ccc2c(c1)OCCO2 | 37.4 (≈ 133 µM) |
| Cc1ccnc(NC(=O)c2ccc(C(=O)c3ccccc3)cc2)c1 | 25.8 (≈ 81.6 µM) |
| COc1ccc(NC(=O)CCC(=O)c2cc(C)sc2C)cc1 | 6.3 (≈ 19.8 µM) |
| COCCSc1nnc(NC(=O)c2ccco2)s1 | > 42.8 |
| CC(C)(C)NCC(O)c1cc(O)cc(O)c1.O=S(=O)(O)O (stereo not given) | > 41.1 |
